Values after ≈ are worked out from the molar mass of the structure shown. Like-named read-outs stand apart in the source and are kept apart here. Square brackets hold non-standard residues; d marks the D form. Peptide text beside a SMILES is read from it.
What was measured:
bacterial growth = conditions: background statement; cited from earlier work
[1] = background statement; cited from earlier work
[2] = tested on: Madin-Derby canine kidney epithelial (MDCK) cells
Procedure: The same procedure was also carried out using mammalian Madin-Derby canine kidney epithelial (MDCK) cells (ATCC Accession No. CCL34). The MDCK cells were cultured until confluent in MEM media supplemented with 10% fetal calf serum (FCS) and L-glutamine. The cells were harvested and resuspended to approximately 1-2×10^6 cells/mL in RPMI media, treated with XMP.391 or XMP.445 at concentrations varying from 5 μg/mL to 100 μg/mL, and incubated for 1 hour. The cells were then stained with DiOC6(3) for 30 minutes and fluorescence intensity was determined in the same manner as described above for C. albicans.
(§1) The relative effect of varying concentrations of the antifungal agent miconazole on fungal C. albicans cells treated with membrane potential indicator dye DiOC6(3) [Molecular Probes], mammalian MDCK cells treated with DiOC6(3) and mammalian MDCK cells treated with PI, was assessed as described above in Examples 1 and 2, except that fungal C. albicans or mammalian MDCK cells were resuspended to a concentration of 1×10^6 cells/mL.

C. albicans SLU#1 strain = assay type: cell-based, Candida albicans
[3] = tested on: Candida albicans strain SLU#1; assay: Flow cytometry of fungal cells treated with test agent and membrane potential dye DiOC6(3); assay type: cell-based; conditions: for concentration at which loss of fungal cell viability occurs: C. albicans SLU#1; for change in DiOC6(3) fluorescence intensity (mean channel from baseline) vs. concentration: C. albicans, 1 hour incubation with agent, 10 ng/mL DiOC6(3), FL1 530 nm, FIG. 1 / FIG. 3
Procedure: A stock fungal cell suspension was prepared as follows. Fungi (Candida albicans strain SLU#1) were cultured on Sabouraud's dextrose agar plates [1 L water, 10 g neopeptone, 20 g dextrose, 15 g Bacto Agar]. One or two colonies from the agar plate were inoculated into 5 mL of Sabouraud's dextrose broth (SDB) [1 L water, 10 g neopeptone, 20 g dextrose] in a sterile 10 mL polypropylene tube and incubated for about 18 hours at 30° C. After this incubation, 4 mL of the fungal culture was inoculated into a flask containing 100 mL of SDB and incubated for about 5 hours or until log growth phase was reached. The culture was centrifuged at 3000 rpm for 5 minutes (Sorvall RT6000B centrifuge), the supernatant was decanted and the pellets were resuspended in a total of 30 mL of SDB. Fungal cell concentration was determined either by absorbance at 570 nm or by diluting 1:10 with Trypan Blue and counting the number of fungal cells using a hemacytometer. The suspension was diluted with SDB to obtain a stock fungal cell suspension of approximately 1-2×10^6 CFU/mL.
Stock 1 mg/mL solutions of peptides XMP.391 and XMP.445 were prepared in saline, and six 2-fold serial dilutions were prepared using phosphate buffered saline (PBS). The fungal cell suspension was divided into 1 mL aliquots, and approximately 20 μL of each serial dilution of XMP.391 or XMP.445 peptide solution was added to an aliquot of fungal cell suspension to obtain final peptide concentrations of 0.313, 0.625, 1.25, 2.5, 5, 10 and 20 μg/mL in the aliquots. No peptide solution was added to the auto-fluorescence and baseline controls. The aliquots were incubated for 1 hour at 30° C. After the incubation, all aliquots were centrifuged at 3000 rpm for 5 minutes (Sorvall RT6000B) and the supernatant removed. The auto-fluorescence control aliquot was resuspended in 1 mL of SDB; the remainder of the samples and the baseline control were resuspended in 1 mL of 10 ng/mL DiOC6(3)/SDB. The auto-fluorescence control thus contained fungal cells in SDB alone (without XMP peptide and without dye), while the baseline control contained fungal cells with dye (but without XMP peptide). […]
The samples were analyzed for fluorescence on the FACScan flowcytometer [Becton-Dickinson, Mountain View, Calif.] using the fl1 detector at a wavelength of 530 nm using the following parameters:
The auto-fluorescence control was used for gating and fluorescence sensitivity was determined using the baseline control. The percent change in fluorescent intensity, expressed as mean channels, was determined by dividing the difference between the sample and baseline values by the baseline value: (sample fl1−baseline fl1)/baseline fl1×100.

C. albicans SLU#1 = assay: Propidium iodide (PI) uptake by fungal cells, flow cytometry; assay type: cell-based, Candida albicans; conditions: C. albicans SLU#1, 10 μg/mL PI, FL2 585 nm; FIG. 2
Description: As in Example 1, the auto-fluorescence control contained fungal or mammalian cells in media alone (without XMP peptide and without PI), while the baseline control contained fungal or mammalian cells with PI (but without XMP peptide). Because it is a viability dye, PI is taken up only when cells are dying or dead; the fluorescent intensity of PI-treated samples should increase with the number of dead cells and should be maximal with 100% dead cells. Thus, for this experiment, a positive control was also prepared (containing 100% dead cells) by resuspending cells in 1 mL of 70% ethanol during the last 10 minutes of the initial 1-hour incubation; this positive control thus contained 100% dead cells with PI (but without XMP peptide). Samples were analyzed for PI uptake on the FACScan using the fl2 detector at a wavelength of 585 nm. The auto-fluorescence sample was used for gating, while the fluorescence sensitivity was determined by the positive control and the PI uptake threshold was determined by the baseline control. The percent change in fluorescent intensity in mean channels was determined using the same equation used in Example 1, and the percentage of cells with PI uptake (ie., dead cells) was calculated.

fungal cells = assay: Confocal microscopy localization of membrane potential indicator dye in fungal cells; assay type: cell-based; conditions: DiOC6(3) 10 ng/mL or MitoTracker Red CM-H2Xros 1 μg/mL, 1 hour peptide incubation
Procedure: Confocal microscopy provides focused fluorescence detection, one plane or slice at a time, at a focus level that allows unobstructed localization of fluorescence within cells. A suspension of 1×10^6 fungal cells/mL was prepared as described above in Example 1 and 1 mL was dispensed into each of four Eppendorf microcentrifuge tubes. Two μL of 1 mg/mL XMP.445 (in saline) was added to two tubes and all four tubes were incubated for 1 hour at 30° C. After the incubation, all tubes were centrifuged in an Eppendorf 5415 centrifuge. The supernatant was removed and the pellet resuspended in 1 mL of SDB. The membrane potential indicator dye DiOC6(3) (diluted in SDB from a stock solution of 2 mg/mL in EtOH) was added to one set of peptide-treated and untreated tubes to a final concentration of 10 ng/mL. The membrane potential indicator dye MitoTracker™ Red CM-H2Xros (from a freshly prepared solution of 500 μg/mL in DMSO) was added to another set of peptide-treated and untreated tubes to a final concentration of 1 μg/mL. The tubes were incubated at 30° C. for 30 min. After the incubation the tubes were centrifuged and the supernatant removed. The pellets were resuspended in 100 μL of 30% glycerol/PBS solution. Three μL from each tube was pipetted onto a microscope slide with a No. 1 cover glass and placed onto a Zeiss 510 Confocal Microscope that uses LSM Version 2.01 software. […]

Candida albicans, SLU-1 = assay: 28-day comparative survival efficacy study in mice systemically infected with Candida albicans, oral gavage; assay type: in vivo; conditions: for mortality vs dextrose-treated controls: male DBA/2 mice, eight times, 28 days
Procedure: XMP.445 was tested for activity upon oral administration (oral activity) in a 28-day comparative survival efficacy study in mice systemically infected with Candida albicans. Specifically, male DBA/2 mice (Charles River Laboratories) six weeks of age were dosed with 7.9×10^4 Candida albicans, SLU-1 in 100 μl intravenously via the tail vein in a single dosage on day 0. Treatment began immediately thereafter with 400 μl oral gavage of either 0.5% dextrose, or XMP.445 in 0.5% dextrose at levels of either 10 mg/kg or 20 mg/kg every other day for a total of eight times. Amphotericin B (Fungizone®) was administered intravenously at 0.5 mg/kg as a positive control every other day for a total of eight times. Twice-day monitoring (once daily on weekends and holidays) for mortality was performed.

CACO-2 and MDCK cells = assay type: in vitro ADME
Procedure: Various BPI-derived peptides were screened for oral absorption in in vitro screening assays using CACO-2 and MDCK cells. Cultured monolayers of CACO-2 (Human colon carcinoma) [Audus, K. L., et al. Pharm. […] The cells were grown to confluency and allowed to differentiate. The integrity of the monolayers was determined by measuring the transepithelial resistance. The cells were incubated with peptide on the apical side for 2.5 hours in MDCK screening or 4 hours for CACO-2 screening. The transepithelial transport of the peptide was measured by quantitative HPLC analysis of the incubation media on the basolateral side of the cells. Radiolabelled mannitol and cortisone were used as positive controls.

MDCK cells = tested on: MDCK cells
Procedure: as §1

gentamicin
concentration required to produce a therapeutic effect (bacterial growth): 8 µg/mL | concentration that produces a toxic effect [1]: 12 µg/mL

CC[C@H](C)[C@H](NC(=O)[C@H](CC(C)C)NC(=O)[C@H](Cc1c[nH]c2ccccc12)NC(=O)CNC(=O)[C@@H](NC(=O)[C@@H](N)CCCCN)C(C)C)C(=O)N[C@@H](CCC(N)=O)C(=O)N[C@@H](CC(C)C)C(=O)N[C@@H](Cc1ccccc1)C(=O)N[C@@H](Cc1c[nH]cn1)C(=O)N[C@@H](CCCCN)C(=O)N[C@@H](CCCCN)C(=O)O [XMP.391] (H-KVGWLIQLFHKK-OH; N-terminus and C-terminus assumed)
change in DiOC6(3) fluorescence intensity in mammalian cells [2]: no substantial increase in fluorescence intensity | minimum fungicidal concentration (C. albicans SLU#1 strain): 2 µg/mL (≈ 1.34 µM)

CC[C@H](C)[C@H](NC(=O)[C@H](CC(C)C)NC(=O)[C@H](Cc1c[nH]c2ccccc12)NC(=O)CNC(=O)[C@H](NC(=O)[C@H](N)CCCCN)C(C)C)C(=O)N[C@@H](CCC(N)=O)C(=O)N[C@@H](CC(C)C)C(=O)N[C@@H](Cc1ccccc1)C(=O)N[C@@H](Cc1c[nH]cn1)C(=O)N[C@H](CCCCN)C(=O)N[C@H](CCCCN)C(=O)O [XMP.445] (H-[dK][dV]GWLIQLFH[dK][dK]-OH; N-terminus and C-terminus assumed)
concentration at which loss of fungal cell viability occurs [3]: about 4 μg/mL | change in DiOC6(3) fluorescence intensity (mean channel from baseline) vs. concentration [3]: concentration-dependent increase in fluorescence intensity | fungal cell viability by PI uptake (C. albicans SLU#1): reduction of fungal cell viability or fungal cell death | fluorescence intensity and localization by confocal microscopy vs untreated cells (fungal cells): increased fluorescence intensity that was localized at the mitochondria | mortality vs dextrose-treated controls (Candida albicans, SLU-1; oral gavage 10 mg/kg every other day): significant improvement (p-value of 0.025) | mortality vs dextrose-treated controls (Candida albicans, SLU-1; oral gavage 10 mg/kg or 20 mg/kg every other day): improvements in mortality compared with the dextrose-treated controls | oral activity (study conclusion) (Candida albicans, SLU-1; mice systemically infected with C. albicans, oral gavage): has oral antifungal activity | intestinal absorption screening outcome (CACO-2 and MDCK cells): potential orally available compound | mammalian cell viability by PI uptake (MDCK cells; MDCK cells, PI, XMP.445 even at a concentration of 50-fold or greater): did not substantially affect viability of mammalian cells | change in DiOC6(3) fluorescence intensity in mammalian cells [2]: no substantial increase in fluorescence intensity | minimum fungicidal concentration (C. albicans SLU#1 strain): 4 µg/mL (≈ 2.67 µM)

Clc1ccc(COC(Cn2ccnc2)c2ccc(Cl)cc2Cl)c(Cl)c1 (stereo not drawn) [miconazole, reference compound]
concentration at which loss of fungal cell viability occurs [3]: less than or equal to 1 μg/mL | change in DiOC6(3) fluorescence intensity (mean channel from baseline) vs. concentration [3]: concentration-dependent increase in fluorescence intensity | mammalian cell viability by PI uptake (MDCK cells): increase in fluorescence intensity indicating cell death

Reference: US6455271B1, “Identification of novel antimicrobial agents using membrane potential indicator dyes” (XOMA Technology, Ltd, priority 1998, dated 2002)
